Format in all cases: cell-based
Experiment [1] concerns SKBR3 (PI3Kα wild type) cells. As to the kind of experiment: Inhibition of pAKT formation, alphaLISA SureFire Ultra AKT 1/2/3 (pS473), SKBR3 cells. Particulars: Homo sapiens, SK-BR-3; Inhibition of pAKT in SKBR3 (PI3Kα wild type) cells; read-out: SKBR3 (WT) pAKT IC50 (nM) (H1047R mutant) IC50. The method, then: (§1) The ability of a compound of Formula (I) to inhibit the formation of pAKT was measured using alphaLISA Surefire Ultra AKT 1/2/3 (pS473) Assay Kit (#ALSU-PAKT-B50K) was obtained from Perkin Elmer (Waltham, MA).
(§2) To prepare assay plates for pAKT alphaLISA assays, cells were trypsinized, resuspended in fresh media, and viable cells were counted utilizing trypan blue exclusion. Prior to seeding, cells were washed with PBS and resuspended in HBSS (Gibco, #14025092). T47D (12,000/w), SKBR3(12,000/w), or MKN1(24,000/w) cells were seeded at 12 μl per well in a solid white flat bottom 384 cell culture plate (Perkin Elmer #6007680).
(§3) Immediately after seeding, cells were dosed using an Echo Liquid Handler (Beckman Coulter) with compounds at a […] starting concentration and serially diluted (1:4) for a total of 10 concentrations. […] Cells were incubated with the compounds (solubilized in DMSO) for approximately one hour or 24 hours at 37° C. After one hour (or 24 hours) of treatment, cells were lysed with 3 μl of the 5× lysis buffer (provided and incubated at room temperature for 15 min on a microtiter plate shaker). Once cells were sufficiently lysed, 7.5 μl of the acceptor bead mix (made using the manufacturers recommended dilutions) was added to each well and left on the microtiter plate shaker for 1 min prior to incubating plates at room temperature for one hour, in the absence of light. After one hour of incubation with the acceptor bead mix, 7.5 μl of the donor bead mix (made using the manufacturers recommended dilutions) was added to each well and left on the microtiter plate shaker for 1 min prior to incubating plates at room temperature overnight in the absence of light. Plates were then imaged the following day using a CLARIOstar microplate reader (BMG Labtech, Germany).
(§4) Percent of control values were calculated by subtracting the average signal from the positive control (alpelisib) treated wells from all treated wells (including DMSO control wells) and then divided by the average signal from the vehicle DMSO treated control wells. Percent of vehicle control values were plotted as log (inhibitor) vs. response-Variable slope (four parameters) for curve fitting and IC50 values were determined using XLfit.
(§5) Key: N.D. =not determined
On the technique in general: Alpha assays give light when donor and acceptor beads are brought close together.

Experiment [2] concerns SKBR3 (PI3Kα wild type) cells. The experiment in a line: CellTiter-Glo 2.0 luminescent cell viability assay, 72 hours, SKBR3 cells. Particulars: Homo sapiens, SK-BR-3, 72 h, SKBR3 (PI3Kα wild type) cells, CellTiter-Glo, approximately 72 hours; read-out: SKBR3 (WT) Viability IC50. A digest of the protocol:
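Viability measured via CTG luminescence following roughly 72 hours of compound exposure at 37° C. Dosing used a 10 um starting concentration diluted 1:4 over 10 points; percent-of-vehicle data fitted with a variable-slope four-parameter model for IC50.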
A general note: Cellular ATP, detected with luciferase, serves as a proxy for viable cell number.

Experiment [3] relates to MKN1 (PI3Kα E545K mutant) cells. As to the kind of experiment: Inhibition of pAKT formation, alphaLISA SureFire Ultra AKT 1/2/3 (pS473), MKN1 cells. Particulars: Homo sapiens, MKN-1; MKN1 (PI3Kα E545K mutant) cells; inhibition of pAKT (pS473) formation; approximately one hour or 24 hours treatment; read-out: MKN1 (E545K) pAKT IC50. The method, then: as §1, §2, §3, §4, §5

Experiment [4] deals with T47D (PI3Kα H1047R mutant) cells. The experiment in a line: CellTiter-Glo 2.0 luminescent cell viability assay, 72 hours, T47D cells. Particulars: Homo sapiens, T47D, 72 h, T47D (PI3Kα H1047R mutant) cells, CellTiter-Glo, approximately 72 hours; read-out: T47D (H1047R mutant) Viability IC50. Put shortly: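 Viability was measured by CellTiter-Glo 2.0 luminescence after approximately 72 h of compound exposure at 37° C. Plating was 1000 cells per well the day before dosing, with ten 1:4 dilutions from a 10 µM top concentration. Values as percent of vehicle were fitted by variable-slope log(inhibitor) regression to give IC50.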

Experiment [5] has as its system MKN1 (PI3Kα E545K mutant) cells. As to the kind of experiment: CellTiter-Glo 2.0 luminescent cell viability assay, 72 hours, MKN1 cells. Particulars: Homo sapiens, MKN-1; MKN1 (PI3Kα E545K mutant) cells, CellTiter-Glo, approximately 72 hours; read-out: MKN1 (E545K) Viability IC50. The method, then:
This Example illustrates that exemplary compounds of the present invention decrease the viability of cells.
The ability of a compound of Formula (I) to decrease the viability of cells was measured using CellTiter-Glo 2.0 (CTG) Luminescent Cell Viability Assay (#G9241) obtained from Promega (Madison, WI).
To prepare assay plates for viability assays, cells were trypsinized, resuspended in fresh media, and viable cells were counted utilizing trypan blue exclusion. T47D, SKBR3, or MKN1 cells were seeded at 1000 cells in 30 μl per well in a solid white flat bottom 384 cell culture plate (Perkin Elmer #6007680) and incubated at 37° C. overnight.
Assay day 1, cells were dosed using an Echo Liquid Handler (Beckman Coulter) with compounds at a 10 um starting concentration and serially diluted (1:4) for a total of 10 concentrations. Cells were incubated for approximately 72 hours with the compounds (solubilized in DMSO) at 37° C. After 72 hours of treatment, cell plates were equilibrated to room temperature before adding 15 μl of CTG to each well, plates were then covered in aluminum foil to protect from light, incubated at room temperature for 30 minutes on a microtiter plate shaker, and luminescence readings were collected using a CLARIOstar microplate reader (BMG Labtech, Germany). Percent of vehicle control values were plotted as log (inhibitor) vs. response-Variable slope (four parameters) for curve fitting and IC50 values were determined using XLfit.

For experiment [6], the system named is T47D (PI3Kα H1047R mutant) cells. The experiment in a line: Inhibition of pAKT formation, alphaLISA SureFire Ultra AKT 1/2/3 (pS473), T47D cells. Particulars: Homo sapiens, T47D, T47D (PI3Kα H1047R mutant) cells; inhibition of pAKT (pS473) formation; approximately one hour or 24 hours treatment; read-out: T47D pAKT (H1047R mutant) IC50. Put shortly: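 AKT Ser473 phosphorylation was quantified by alphaLISA SureFire Ultra after roughly 1 h or 24 h compound exposure at 37 °C. Cells were T47D (12,000/well in HBSS), treated with a 10-point 1:4 series starting at 10.4 μM. Percent of control used alpelisib background and DMSO reference, and IC50 came from four-parameter logistic fitting.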

Structures are written as SMILES.

For orientation: IC50 means the point on the concentration scale where inhibition reaches its midpoint. On to `Cc1cc([C@@H](C)Nc2ccccc2C(=O)O)c2nc(N3CCCCC3)cc(=O)n2c1` (single isomer, unassigned) [Example 3-1], for which the IC50 in experiment [1] was above 10000 nM; in experiment [2], above 10 µM; in experiment [3] it was 2.5 µM; in experiment [4] it was 1.27 µM; in experiment [5], above 10 µM; in experiment [6] it was 0.0149 µM.

Regarding `Cc1cc([C@H](C)Nc2ccccc2C(=O)O)c2nc(N3CCCCC3)cc(=O)n2c1` (single isomer, unassigned) [Example 3-2], the IC50 in experiment [1] is above 10000 nM; in experiment [2], above 10 µM; in experiment [3], 0.755 µM; in experiment [4], above 10 µM; in experiment [5], above 10 µM; in experiment [6], 1.91 µM.

As to `Cc1cc([C@@H](C)Nc2ccccc2C(=O)O)c2nc(N3CCC(C)(C)CC3)c(C)c(=O)n2c1` (single isomer, unassigned) [Example 5-1], the IC50 in experiment [1] was 1820 nM; in experiment [2], above 10 µM; in experiment [3] it was 1.39 µM; in experiment [4] it was 0.461 µM; in experiment [5], above 10 µM; in experiment [6], 0.03 µM.

In the case of `Cc1cc([C@H](C)Nc2ccccc2C(=O)O)c2nc(N3CCC(C)(C)CC3)cc(=O)n2c1` (single isomer, unassigned) [Example 5-4], the IC50 is 7070 nM in experiment [1]; above 10 µM in experiment [2]; 1.95 µM in experiment [3]; 0.98 µM in experiment [4]; above 10 µM in experiment [5]; 0.0135 µM in experiment [6].

For the molecule `Cc1cc([C@@H](C)Nc2ccccc2C(=O)O)c2nc(N3CCC(C)(C)CC3)cc(=O)n2c1` (single isomer, unassigned) [Example 5-5], the IC50 is above 10000 nM in experiment [1]; above 10 µM in experiment [2]; above 10 µM in experiment [3]; 8.02 µM in experiment [4]; above 10 µM in experiment [5]; 1.21 µM in experiment [6].

Regarding `Cc1cc([C@H](C)Nc2ccccc2C(=O)O)c2nc(N3Cc4ccccc4C3)c(C)c(=O)n2c1` (single isomer, unassigned) [Example 5-9-1], the IC50 in experiment [1] is 4550 nM; in experiment [2] it was above 10 µM; in experiment [3], 0.271 µM; in experiment [4] it was 0.316 µM; in experiment [5], above 10 µM; in experiment [6], 0.0117 µM.

As to `Cc1cc([C@@H](C)Nc2ccccc2C(=O)O)c2nc(N3Cc4ccccc4C3)c(C)c(=O)n2c1` (single isomer, unassigned) [Example 5-9-2], the IC50 in experiment [1] was above 10000 nM; in experiment [2] it was above 10 µM; in experiment [3] it was above 10 µM; in experiment [4], 9.68 µM; in experiment [5] it was above 10 µM; in experiment [6], 3.01 µM.

Consider `Cc1cc(C(C)Nc2ccccc2C(=O)O)c2nc(C3CC3)cc(=O)n2c1` (stereo not drawn) [6-2, 2-((1-(2-cyclopropyl-7-methyl-4-oxo-4H-pyrido[1,2-a]pyrimidin-9-yl)ethyl)amino)benzoic acid], for which the IC50 is above 10000 nM in experiment [1]; above 10 µM in experiment [2]; above 10 µM in experiment [3]; above 10 µM in experiment [4]; above 10 µM in experiment [5]; 0.0932 µM in experiment [6].

As for `CC(Nc1ccccc1C(=O)O)c1cccn2c(=O)cc(N3Cc4ccccc4C3)nc12` (stereo not drawn) [9-4, 2-((1-(2-(isoindolin-2-yl)-4-oxo-4H-pyrido[1,2-a]pyrimidin-9-yl)ethyl)amino)benzoic acid], the IC50 in experiment [1] is above 10000 nM; in experiment [2], above 10 µM; in experiment [3], above 10 µM; in experiment [4], 9.97 µM; in experiment [5], above 10 µM; in experiment [6], 0.0259 µM.

On to `Cc1cc(C(C)Nc2ccccc2)c2nc(N3CCCCC3)cc(=O)n2c1` (stereo not drawn) [Example 1, 7-methyl-9-(1-(phenylamino)ethyl)-2-(piperidin-1-yl)-4H-pyrido[1,2-a]pyrimidin-4-one], for which the IC50 is above 10000 nM in experiment [1]; above 10 µM in experiment [2]; above 10 µM in experiment [3]; above 10 µM in experiment [4]; above 10 µM in experiment [5]; above 10 µM in experiment [6].

Turning to `COc1cccc(NC(C)c2cc(C)cn3c(=O)cc(N4CCCCC4)nc23)c1C(=O)O` (stereo not drawn) [Example 3-3, 2-methoxy-6-((1-(7-methyl-4-oxo-2-(piperidin-1-yl)-4H-pyrido[1,2-a]pyrimidin-9-yl)ethyl)amino)benzoic acid], the IC50 in experiment [1] was above 10000 nM; in experiment [2], above 10 µM; in experiment [3], above 10 µM; in experiment [4], above 10 µM; in experiment [5], above 10 µM; in experiment [6] it was 2.73 µM.

For `COc1ccc(NC(C)c2cc(C)cn3c(=O)cc(N4CCCCC4)nc23)c(C(=O)O)c1` (stereo not drawn) [Example 3-5, 5-methoxy-2-((1-(7-methyl-4-oxo-2-(piperidin-1-yl)-4H-pyrido[1,2-a]pyrimidin-9-yl)ethyl)amino)benzoic acid], the concentration for half-maximal inhibition (IC50) in experiment [1] is above 10000 nM; in experiment [2], above 10 µM; in experiment [3], above 10 µM; in experiment [4], above 10 µM; in experiment [5], above 10 µM; in experiment [6], 1.8 µM.

Take `Cc1cc(C(C)Nc2ccc(O)cc2C(=O)O)c2nc(N3CCCCC3)cc(=O)n2c1` (stereo not drawn) [Example 3-6, 5-hydroxy-2-((1-(7-methyl-4-oxo-2-(piperidin-1-yl)-4H-pyrido[1,2-a]pyrimidin-9-yl)ethyl)amino)benzoic acid]: the IC50 in experiment [1] is 2670 nM; in experiment [2], above 10 µM; in experiment [3], above 10 µM; in experiment [4], above 10 µM; in experiment [5] it was above 10 µM; in experiment [6], above 10 µM.

Turning to `COc1ccc(C(=O)O)c(NC(C)c2cc(C)cn3c(=O)cc(N4CCCCC4)nc23)c1` (stereo not drawn) [Example 3-7, 4-methoxy-2-((1-(7-methyl-4-oxo-2-(piperidin-1-yl)-4H-pyrido[1,2-a]pyrimidin-9-yl)ethyl)amino)benzoic acid], the IC50 is 8030 nM in experiment [1]; above 10 µM in experiment [2]; above 10 µM in experiment [3]; above 10 µM in experiment [4]; above 10 µM in experiment [5]; above 10 µM in experiment [6].

These data come from patent US20260078120A1, “SUBSTITUTED PYRIDOPYRIMIDINONES” (MIRATI THERAPEUTICS, INC., priority 2022, published 2026).
